# Experimental data: article PMC5598403 (Toxicology Reports, 2014)
# pIC50: −log10 of the molar value.
# Target: CK2α (protein kinase CK2 catalytic subunit α) (Homo sapiens, UniProt P68400)
# Assay: radiometric [γ-32P]ATP kinase assay with synthetic peptide RRRADDSDDDDD
# Assay type: biochemical
# Chain of CK2α (protein kinase CK2 catalytic subunit α) (P68400 whole entry): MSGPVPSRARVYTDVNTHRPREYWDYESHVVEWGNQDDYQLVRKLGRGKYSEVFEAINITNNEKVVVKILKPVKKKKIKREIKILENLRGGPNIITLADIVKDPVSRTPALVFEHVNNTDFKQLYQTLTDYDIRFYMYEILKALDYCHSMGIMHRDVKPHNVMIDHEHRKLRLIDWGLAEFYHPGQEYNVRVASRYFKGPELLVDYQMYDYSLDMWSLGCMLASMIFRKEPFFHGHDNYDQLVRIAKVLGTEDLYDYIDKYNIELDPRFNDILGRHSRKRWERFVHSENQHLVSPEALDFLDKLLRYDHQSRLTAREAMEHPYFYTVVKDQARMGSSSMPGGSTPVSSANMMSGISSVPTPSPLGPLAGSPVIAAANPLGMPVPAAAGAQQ
compound,measurement,value
"Oc1c(Cl)c(Cl)c(Cl)c(Cl)c1Cl [PCP, pentachlorophenol]",pIC50,5.43
